We go through 11 compounds from patent US20140073631A1 (priority 2012, published 2014).

As a reminder, the % inhibition is the percentage by which the read-out fell short of the control. A higher % inhibition goes with a response far below the control.

The structures appear in SMILES notation. Converted amounts (≈) assume the structure as drawn.

Assay in all cases: microbe, parasite or virus in culture
For assay [1], the system named is ATCC 35830 Ethionamide Resistant. Type of assay: cell-based. To be noted: Mycobacterium tuberculosis, ATCC35830, read-out: MIC Value, ATCC 35830 Ethionamide Resistant.
The subject of assay [2] is ofloxacin (OFX)-resistant Mtb (SRI 4000). The format is cell-based, Mycobacterium tuberculosis. To be noted: for MIC: Mycobacterium tuberculosis, read-out: MIC OFX-R.
Assay [3] concerns isoniazid (INH)-resistant Mtb (SRI 1369). The format is cell-based, Mycobacterium tuberculosis. To be noted: for MIC: Mycobacterium tuberculosis, read-out: MIC INH-R.
For assay [4], the system named is ATCC 35837 Ethambutol Resistant. The format is cell-based. To be noted: Mycobacterium tuberculosis, ATCC35837, read-out: MIC Value, ATCC 35837 Ethambutol Resistant.
Assay [5] has as its system rifampin (RMP)-resistant Mtb (SRI 1367). The format is cell-based, Mycobacterium tuberculosis. Conditions: for MIC: Mycobacterium tuberculosis, read-out: MIC RMP-R.
Assay [6] has as its system ATCC 35827 Kanamycin Resistant. The format is cell-based. To be noted: Mycobacterium tuberculosis, ATCC35827, read-out: MIC Value, ATCC 35827 Kanamycin Resistant.
For assay [7], the system named is ATCC 35821 Para-aminosalicylic Resistant. The format is cell-based, Mycobacterium tuberculosis. To be noted: for MIC: Mycobacterium tuberculosis, ATCC35821, read-out: MIC Value, ATCC 35821 Para-aminosalicylic Resistant.
Assay [8] relates to ATCC 35820 Streptomycin Resistant. Type of assay: cell-based. Conditions: Mycobacterium tuberculosis, ATCC35820, read-out: MIC Value, ATCC 35820 Streptomycin Resistant.
The subject of assay [9] is ATCC 35822 Isoniazid Resistant. Type of assay: cell-based. Conditions: Mycobacterium tuberculosis, ATCC35822, read-out: MIC Value, ATCC 35822 Isoniazid Resistant.

As for `CCc1cc(C(N)=S)ccn1` [Ethionamide, reference compound], in assay [1], the MIC is greater than 8 µg/mL.
As to `CO[C@H]1/C=C/O[C@@]2(C)Oc3c(C)c(O)c4c(O)c(c(/C=N/N5CCN(C)CC5)c(O)c4c3C2=O)NC(=O)/C(C)=C\C=C\[C@H](C)[C@H](O)[C@@H](C)[C@@H](O)[C@@H](C)[C@H](OC(C)=O)[C@@H]1C` [Rifampin, rifampin, reference compound], in assay [2], the “% inhibition at the MIC concentration” value is 75% and the MIC is 0.195 µg/mL (≈ 0.237 µM). For the same compound, in assay [3], the “% inhibition at the MIC concentration” value came to 67% and the MIC was 0.049 µg/mL (≈ 0.0595 µM).
With `CC[C@@H](CO)NCCN[C@@H](CC)CO` [Ethambutol, reference compound], the MIC in assay [4] was greater than 8 µg/mL.
As for `N=C(NCCCCCCNC(=N)NC(=N)N1CCN(c2cc3c(cc2F)c(=O)c(C(=O)O)cn3C2CC2)CC1)NC(=N)N1CCN(c2cc3c(cc2F)c(=O)c(C(=O)O)cn3C2CC2)CC1` [BVS-10A], the “% inhibition at the MIC concentration” value is recorded as 74% in [2], 58% in [5] and 53% in assay [3]. The MIC in assay [2] turned out to be 0.781 µg/mL (≈ 0.855 µM); in assay [5] it was 6.25 µg/mL (≈ 6.85 µM); in assay [3], 1.56 µg/mL (≈ 1.71 µM).
As to `NC[C@H]1O[C@H](O[C@H]2[C@H](O)[C@@H](O[C@H]3O[C@H](CO)[C@@H](O)[C@H](N)[C@H]3O)[C@H](N)C[C@@H]2N)[C@H](O)[C@@H](O)[C@@H]1O` [Kanamycin, reference compound], the MIC in assay [6] is greater than 8 µg/mL.
With `Nc1ccc(C(=O)O)c(O)c1` [Para-aminosalicylic, reference compound], the “MIC Value, ATCC 35821 Para-aminosalicylic Resistant” value in assay [7] is greater than 8 µg/mL.
Take `CC1COc2c(N3CCN(C(=N)NC#N)CC3)c(F)cc3c(=O)c(C(=O)O)cn1c23` (stereo not drawn) [BVS-60C (XVII)]: the MIC is 0.312 µg/mL (≈ 0.753 µM) in assay [8]; 0.625 to 1.25 µg/mL (≈ 1.51 to 3.02 µM) in assay [7]; 0.312 µg/mL (≈ 0.753 µM) in [1]; 0.625 µg/mL (≈ 1.51 µM) in assay [6]; 0.625 µg/mL (≈ 1.51 µM) in [9]; 0.625 µg/mL (≈ 1.51 µM) in assay [4].
As to `C[C@@H]1COc2c(N3CCN(C(=N)NC(=N)NCCCCCCNC(=N)NC(=N)N4CCN(c5c(F)cc6c(=O)c(C(=O)O)cn7c6c5OC[C@@H]7C)CC4)CC3)c(F)cc3c(=O)c(C(=O)O)cn1c23` [BVS-85A (XVII)], the MIC in [8] is 0.625 µg/mL (≈ 0.661 µM); in assay [7] it was 2.5 µg/mL (≈ 2.65 µM); in [1], 0.625 µg/mL (≈ 0.661 µM); in [6], 1.25 to 2.5 µg/mL (≈ 1.32 to 2.65 µM); in assay [9] it was 1.25 µg/mL (≈ 1.32 µM); in [4] it was 1.25 µg/mL (≈ 1.32 µM).
In the case of `NNC(=O)c1ccncc1` [Isoniazid, isoniazid, reference compound], the MIC in [9] is greater than 8 µg/mL. Also, in assay [5], the “% inhibition at the MIC concentration” value was determined as 86% and the MIC was found to be 0.02 µg/mL (≈ 0.146 µM).
Turning to `[H]/N=C(/N)N[C@H]1[C@H](O)[C@@H](O)[C@H](O[C@@H]2O[C@@H](C)[C@](O)(C=O)[C@H]2O[C@@H]2O[C@@H](CO)[C@H](O)[C@@H](O)[C@@H]2NC)[C@@H](N/C(N)=N\[H])[C@@H]1O` [Streptomycin, reference compound], the MIC in [8] is greater than 8 µg/mL.
On to `C[C@@H]1COc2c(N3CCN(C(=N)NC(=N)N4CCN(c5c(F)cc6c(=O)c(C(=O)O)cn7c6c5OC[C@@H]7C)CC4)CC3)c(F)cc3c(=O)c(C(=O)O)cn1c23` [BVS-76D (XVII)], for which the MIC is 0.312 µg/mL (≈ 0.41 µM) in assay [8]; 0.625 to 1.25 µg/mL (≈ 0.82 to 1.64 µM) in [7]; 0.156 µg/mL (≈ 0.205 µM) in [1]; 0.625 µg/mL (≈ 0.82 µM) in assay [6]; 0.625 µg/mL (≈ 0.82 µM) in [9]; 0.312 to 0.625 µg/mL (≈ 0.41 to 0.82 µM) in [4].
